Laboratory results taken from patent publication US20250032446A1, “METHODS AND COMPOSITIONS FOR THE BIOSYNTHESIS AND USE OF DEMETHYLATED POLYMETHOXY FLAVONES” (RUTGERS, THE STATE UNIVERSITY OF NEW JERSEY, priority 2021, published 2025).
Converted amounts (≈) assume the structure as drawn. “Also recorded” adds a separate entry of the source.

Assays:
[1] = Water solubility of nobiletin / nobiletin-HMS dispersion; assay type: physicochemical; settings: 25 °C
Experimental: To check the water solubility of nobiletin in the nobiletin-HMS dispersion system, an excess of the media-milled nobiletin powder was dispersed into distilled water and agitated thoroughly for 24 hours at room temperature to reach full saturation.

[2] = Solubility of nobiletin in DMSO; assay type: physicochemical; settings: organic solvent or mixture, read-out: maximal solubility in DMSO
[3] = MTT assay, pre-confluent cell proliferation; assay type: cell-based, mouse; settings: mouse, pre-confluent 3T3-L1 preadipocytes; 100 μM; read-out: cell viability reduced by
Experimental: (§1) 3T3-L1 cells were purchased from American Type Culture Collection (ATCC, Rockville, MD) and maintained in MEME media with 10% FBS 1% penicillin/streptomycin (GIBCO, Paisley, UK) in a humidified atmosphere of 5% CO2 in air at 37° C. Cells were passaged by using 0.05% (vol) Trypsin and replated in 55-cm^2 dishes at a density of 1*10^4 cells/cm^2 until confluence.
(§2) For treatment, nobiletin and the mixture of 6- and 7-OH-nobiletin (M67N) in a 1:49 ratio were first dissolved in dimethyl sulphoxide (DMSO) to make stock solution (5 mM to 100 mM). (FIG. 20) The stock solution was then diluted by 1000 times with culture medium to designated concentrations. Cells cultured in full DMEM was set as negative control while cells treated with DM with 0.1% DMSO as positive control.
(§3) 3T3-L1 cells were seeded on 96-well plate at density of 1×10^4 cells/well and incubated overnight for cell attachment. For measuring pre-confluent cell proliferation, cells were cultivated for 36 hours and full MEME with or without nobiletin or M67N was used. For measuring post-confluent cell proliferation during first three days of differentiation, cells were switched to DM with different concentrations of nobiletin or M67N for 72 hours. At the end of each treatment, cells were washed with PBS three times. MTT ([…]) was added at concentration of 0.5 mg/mL to the cells. After a 3-hour incubation, the medium was decanted from each well and 150 μL DMSO was added to dissolve the formed formazan crystals on a shaker. When the crystal was completely dissolved, the absorbance at 570 nm was measured. Cell viability was interpreted as the percentage (%) of the readout of treated cells divided by that of control. Six repeats were carried out for each concentration.
(§4) 3T3-L1 cells were seeded on 96-well plate at density of 1×10^4 cells/well and were incubated overnight for cell attachment. For measuring pre-confluent cell proliferation, full MEME with or without nobiletin or 6-OH-nobiletin, or 7-OH-nobiletin was used and cells were cultivated for 36 hours. For measuring post-confluent cell proliferation during the first three days of differentiation, cells were treated after 2 days of confluence. Specifically, cells were switched to differentiation medium (DM) with different concentrations of targeted compounds for 24 hours. At the end of each treatment, cells were washed with PBS three times followed by the addition of 100 μL MTT at concentration of 0.5 mg/mL. After 3 hours' incubation, the medium in each well were decanted while 150 μL DMSO was added to dissolve the formed formazan crystals at a shaker. When the crystals were completely dissolved, the absorbance of at 590 nm was measured. Cell viability was interpreted as the percentage (%) of the readout of treated cells divided by that of control. Five repeats were carried out for each concentration.

3T3-L1 preadipocytes = test: MTT assay, pre-confluent cell proliferation; assay type: cell-based, mouse
Experimental: as §1, §2, §3, §4

[4] = tested on: differentiating 3T3-L1 adipocytes; test: Oil Red O staining, lipid accumulation; assay type: cell-based, mouse; settings: for effect on intracellular lipid accumulation: various concentrations, Oil Red O at day 8
Experimental: Two days after confluence, designated as day 0, adipocyte differentiation was initiated by culturing the cells for three days in differentiation medium (DM) which contained 10 μg/mL insulin, 0.5 mM IBMX, and 1 μM dexamethasone in complete culture medium. At day 3, the medium was replaced with DMEM, containing 10 μg/mL insulin. The medium was changed every two days until day 8. Cells were harvested on day 3 or day 8.
as §2
On day 8, cell layers were washed with 1×PBS and fixed with 10% paraformaldehyde (Sigma, St. Louis, MO, USA). After 15 minutes' fixation, the medium in each well was decanted and placed in a fume hood for complete dryness. Afterwards, cells were subjected to Oil Red O staining for 30 min, which was followed by immediate rinse in water. The intracellular lipid droplets were checked and pictures were captured on Olympus FSX100 Microscope. For the quantification of intracellular lipids, dyes were dissolved in 4% NP-40/isopropanol and the absorbance was measured at 520 nm by a microplate reader.

[5] = tested on: post-confluent 3T3-L1 cells; settings: 3T3-L1 preadipocytes; Hadrich & Sayadi, 2018; cited from earlier work
3T3-L1 cells = settings: 3T3-L1 preadipocytes; Hadrich & Sayadi, 2018; cited from earlier work
[6] = Effect of pH of fermented media on extracted content of M2 and M3 (stability); assay type: physicochemical
Experimental: Lastly, the fermented media was adjusted to pH 2.0, 5.0, 6.5, 7.0, 8.0 and 10.0 using HCl or NaOH. Subsequently, 3 extractions were conducted, and the sample was dried, weighed and analyzed using HPLC. The amount of extracted metabolites were compared and used to evaluate the effect of pH on extraction.

SMILES | solubility [1] | solubility [2] | cytotoxicity at 36 h, 100 μM [3] | inhibitory effect on the proliferation of preadipocytes (3T3-L1 preadipocytes; up to 75 μM) | intracellular lipid content ([4]; 15 μM, relative to positive control) | lipid formation / accumulation reduced to ([4]; 50 μM, relative to positive control) | inhibition at 50 µM ([4]; Mus musculus, 3T3-L1, 50 μM, read-out: reduction of lipid formation / inhibition of lipid accumulation) | effect on intracellular lipid accumulation [4] | decrease of cell viability [5] | cell cycle arrest (3T3-L1 cells) | total amount of extracted metabolite ([6]; fermented media at pH 2.0 (first of four values, pH 2.0 to 7.0)) | total amount of extracted metabolite ([6]; fermented media at pH 5.0 (second of four values)) | total amount of extracted metabolite ([6]; fermented media at pH 6.5 (third of four values)) | total amount of extracted metabolite ([6]; fermented media at pH 7.0 (fourth of four values)) | content of extracted metabolite ([6]; pH 8.0) | stability at alkaline condition ([6]; pH 8.0 and 10.0) | content of extracted metabolite ([6]; pH 10.0) | effect on cell proliferation (3T3-L1 preadipocytes; even at 100 μM)
COc1ccc(-c2cc(=O)c3c(OC)c(OC)c(OC)c(OC)c3o2)cc1OC [Nobiletin, 5,6,7,8,3′,4′-hexamethoxyflavone, reference compound] | 9.2 µg/mL (≈ 22.9 µM) | ≤ 18000 µg/mL | 50% | did not show any inhibitory effect; also recorded: did not demonstrated any inhibition effect | 101.254±6.096% | 45.2±4.9% | 50% | decreased the intracellular lipid content in a dose-dependent way; also recorded: obvious suppressive effect on intracellular lipid accumulation | – | – | – | – | – | – | – | – | – | –
O=c1cc(-c2ccc(O)cc2)oc2cc(O[C@@H]3O[C@H](CO)[C@@H](O)[C@H](O)[C@H]3O)cc(O)c12 [apigetrin] | – | – | – | – | – | – | – | – | 50% | arrest 3T3-L1 preadipocytes at G1 phase | – | – | – | – | – | – | – | –
COc1ccc(-c2cc(=O)c3c(OC)c(OC)c(O)c(OC)c3o2)cc1OC [7-OH-nobiletin, 7-hydroxy-5,6,8,3′,4′-pentamethoxyflavone] | – | – | – | – | – | – | – | obvious suppressive effect on intracellular lipid accumulation | – | – | 46.5 ± 1.3 µg/mL | 47.5 ± 1.9 µg/mL | 47.6 ± 0.7 µg/mL | 46.9 ± 1.5 µg/mL | 39.2 ± 1.8 µg/mL | not stable at alkaline condition | 11.7 ± 0.6 µg/mL | did not present significant effect on cell proliferation
